How the values were obtained:
Trypanosoma brucei [1] = experiment: Antitrypanosomal activity against drug resistant Trypanosoma brucei harboring TbAT1 deficient assessed as reduction in parasite viability incubated for 48 hrs by resazurin dye based fluorescence assay; assay type: functional, organism-based
MRC5 = experiment: Cytotoxicity against human MRC5 cells assessed as reduction in cell viability incubated for 3 days by resazurin dye based fluorescence assay; conditions: MRC5, 72 h
[2] = Selectivity index, ratio of EC50 for cytotoxicity against human MRC5 cells to EC50 for antitrypanosomal activity against Trypanosoma brucei brucei; assay type: toxicity, cell-based; conditions: read-out: Ratio EC50
[3] = (§1) Inhibition of Trypanosoma brucei P2 transporter assessed as reduction in [3H]-adenosine uptake measured after 60 sec by scintillation counting method
[4] = system: Trypanosoma brucei brucei; experiment: Antitrypanosomal activity against Trypanosoma brucei brucei assessed as reduction in parasite growth incubated for 3 days by resazurin dye based fluorescence assay; assay type: functional, organism-based; conditions: 72 h
Trypanosoma brucei [5] = experiment: Antitrypanosomal activity against drug resistant Trypanosoma brucei B48 assessed as reduction in parasite viability incubated for 48 hrs by resazurin dye based fluorescence assay; assay type: functional, organism-based; conditions: B48, 48 h
[6] = system: Trypanosoma brucei brucei; experiment: Antitrypanosomal activity against Trypanosoma brucei brucei Lister 427 blood stream forms assessed as reduction in parasite viability incubated for 48 hrs by resazurin dye based fluorescence assay; assay type: functional, organism-based; conditions: Lister 427, 48 h
[7] = (§2) Inhibition of Trypanosoma brucei P1 transporter assessed as reduction in [3H]-adenosine uptake measured after 60 sec by scintillation counting method
[8] = system: Trypanosoma brucei rhodesiense; experiment: Antitrypanosomal activity against Trypanosoma brucei rhodesiense assessed as reduction in parasite growth incubated for 3 days by resazurin dye based fluorescence assay; assay type: functional, organism-based; conditions: 72 h
Trypanosoma brucei [9] = experiment: Antitrypanosomal activity against drug resistant Trypanosoma brucei ISMR1 assessed as reduction in parasite viability incubated for 48 hrs by resazurin dye based fluorescence assay; assay type: functional, organism-based; conditions: ISMR1, 48 h
[10] = Selectivity index, ratio of EC50 for cytotoxicity against human MRC5 cells to EC50 for antitrypanosomal activity against Trypanosoma brucei rhodesiense; assay type: toxicity, cell-based; conditions: read-out: Ratio EC50
[11] = Resistance factor, ratio of EC50 for antitrypanosomal activity against drug resistant Trypanosoma brucei harboring TbAT1 deficient to antitrypanosomal activity against Trypanosoma brucei brucei Lister 427 blood stream form; assay type: functional
[12] = Resistance factor, ratio of EC50 for antitrypanosomal activity against drug resistant Trypanosoma brucei ISMR1 to antitrypanosomal activity against Trypanosoma brucei brucei Lister 427 blood stream form; assay type: functional
[13] = Resistance factor, ratio of EC50 for antitrypanosomal activity against drug resistant Trypanosoma brucei B48 to antitrypanosomal activity against Trypanosoma brucei brucei Lister 427 blood stream form; assay type: functional
[14] = Inhibition of Trypanosoma brucei P1 transporter assessed as reduction in [3H]-adenosine uptake by scintillation counting method
[15] = Inhibition of Trypanosoma brucei P2 transporter assessed as reduction in [3H]-adenosine uptake by scintillation counting method
Trypanosoma brucei [16] = experiment: as §1
Trypanosoma brucei [17] = experiment: as §2

**Q.** Which results are given for `CC(C)Oc1ncnc2c1c(Cl)cn2[C@@H]1O[C@H](CO)[C@@H](O)[C@H]1O`?
**A.** EC50 (Trypanosoma brucei [1]): 198 nM; EC50 (MRC5): > 64000 nM; selectivity ratio [2]: > 711; Ki [3]: 246000 nM; EC50 [4]: 90 nM; EC50 (Trypanosoma brucei [5]): 188 nM; EC50 [6]: 184 nM; Ki [7]: 284000 nM; EC50 [8]: 100 nM; EC50 (Trypanosoma brucei [9]): 270 nM; selectivity ratio [10]: > 640; Ratio EC50 [11]: 1.08; Ratio EC50 [12]: 1.47; Ratio EC50 [13]: 1.02

**Q.** Which Ratio EC50 [11] does the source give for `N=C(N)c1ccc(OCCCCCOc2ccc(C(=N)N)cc2)cc1` here?
**A.** 1.8

**Q.** And the Ratio EC50 [12]?
**A.** 13.8

**Q.** What about the Ratio EC50 [13] of the same molecule?
**A.** 94.6

**Q.** What does the source list for `N=C(N)c1ccc(/N=N/Nc2ccc(C(=N)N)cc2)cc1`?
**A.** Ratio EC50 [11]: 10.6; Ratio EC50 [12]: 6.9; Ratio EC50 [13]: 16.9

**Q.** With `Nc1ncnc2c1ccn2[C@@H]1O[C@H](CO)[C@@H](O)[C@H]1O` [TUBERCIDIN] as the molecule, how does the Ki [14] read?
**A.** 78000 nM

**Q.** And the Ki [15]?
**A.** 3800 nM

**Q.** What does the source list for `Nc1ncnc2c1ncn2[C@@H]1O[C@H](CO)[C@@H](O)[C@H]1O`?
**A.** Km (Trypanosoma brucei [16]): 0.53 µM; Km (Trypanosoma brucei [17]): 0.12 µM

**Q.** With `CCOc1ncnc2c1c(Cl)cn2[C@@H]1O[C@H](CO)[C@@H](O)[C@H]1O` as the molecule, how does the EC50 (Trypanosoma brucei [1]) read?
**A.** 113 nM

**Q.** What about the EC50 (MRC5) of the same molecule?
**A.** ≥ 64000 nM

**Q.** And the selectivity ratio [2]?
**A.** > 275

**Q.** What about the Ki [3] of the same molecule?
**A.** 139000 nM

**Q.** What about the EC50 [4] of the same molecule?
**A.** 120 nM

**Q.** And the EC50 (Trypanosoma brucei [5])?
**A.** 134 nM

**Q.** What about the EC50 [6] of the same molecule?
**A.** 79 nM

**Q.** And the Ki [7]?
**A.** 99000 nM

**Q.** What about the EC50 [8] of the same molecule?
**A.** 57 nM

**Q.** And the EC50 (Trypanosoma brucei [9])?
**A.** 194 nM

**Q.** What about the selectivity ratio [10] of the same molecule?
**A.** > 578

**Q.** What about the Ratio EC50 [11] of the same molecule?
**A.** 1.43

**Q.** What about the Ratio EC50 [12] of the same molecule?
**A.** 2.45

**Q.** And the Ratio EC50 [13]?
**A.** 1.7

**Q.** With `CC[n+]1c(-c2ccccc2)c2cc(N/N=N/c3cccc(C(=N)N)c3)ccc2c2ccc(N)cc21` as the molecule, how does the Ratio EC50 [11] read?
**A.** 1.2

**Q.** What about the Ratio EC50 [12] of the same molecule?
**A.** 4.8

**Q.** What about the Ratio EC50 [13] of the same molecule?
**A.** 0.85

**Q.** With `COc1ncnc2c1c(Cl)cn2[C@@H]1O[C@H](CO)[C@@H](O)[C@H]1O` as the molecule, how does the EC50 (Trypanosoma brucei [1]) read?
**A.** 57 nM

**Q.** And the EC50 (MRC5)?
**A.** ≥ 32000 nM

**Q.** What about the selectivity ratio [2] of the same molecule?
**A.** > 200

**Q.** What about the Ki [3] of the same molecule?
**A.** 149000 nM

**Q.** And the EC50 [4]?
**A.** 160 nM

**Q.** What about the EC50 (Trypanosoma brucei [5]) of the same molecule?
**A.** 57 nM

**Q.** And the EC50 [6]?
**A.** 100 nM

**Q.** What about the Ki [7] of the same molecule?
**A.** 35500 nM

**Q.** What about the EC50 [8] of the same molecule?
**A.** 36 nM

**Q.** What about the EC50 (Trypanosoma brucei [9]) of the same molecule?
**A.** 84 nM

**Q.** And the selectivity ratio [10]?
**A.** > 888

**Q.** What about the Ratio EC50 [11] of the same molecule?
**A.** 0.57

**Q.** What about the Ratio EC50 [12] of the same molecule?
**A.** 0.84

**Q.** And the Ratio EC50 [13]?
**A.** 0.57

**Q.** Which results are given for `COc1ncnc2c1c(Br)cn2[C@@H]1O[C@H](CO)[C@@H](O)[C@H]1O`?
**A.** EC50 (Trypanosoma brucei [1]): 83 nM; EC50 (MRC5): > 64000 nM; selectivity ratio [2]: > 336; EC50 [4]: 190 nM; EC50 (Trypanosoma brucei [5]): 90 nM; EC50 [6]: 117 nM; EC50 [8]: 36 nM; EC50 (Trypanosoma brucei [9]): 99 nM; selectivity ratio [10]: > 1780; Ratio EC50 [11]: 0.71; Ratio EC50 [12]: 0.85; Ratio EC50 [13]: 0.77
